The target of test [1] is T1, 5-hydroxytryptamine receptor 2C (Homo sapiens, UniProt P28335).
T1 sequence (P28335 whole entry): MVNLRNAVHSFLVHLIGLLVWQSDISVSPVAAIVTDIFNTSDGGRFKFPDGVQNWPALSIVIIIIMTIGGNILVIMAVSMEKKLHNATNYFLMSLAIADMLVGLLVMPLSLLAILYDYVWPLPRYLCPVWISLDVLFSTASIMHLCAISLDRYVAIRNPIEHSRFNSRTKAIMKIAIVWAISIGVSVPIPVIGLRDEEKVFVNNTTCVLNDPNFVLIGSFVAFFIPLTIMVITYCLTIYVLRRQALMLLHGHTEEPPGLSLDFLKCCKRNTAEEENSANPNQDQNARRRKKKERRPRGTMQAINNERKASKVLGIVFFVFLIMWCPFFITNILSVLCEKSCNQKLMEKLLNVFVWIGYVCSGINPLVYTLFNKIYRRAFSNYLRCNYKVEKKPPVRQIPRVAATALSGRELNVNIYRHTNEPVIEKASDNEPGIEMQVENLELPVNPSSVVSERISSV
Briefly: Binding affinity at 5-HT2C receptor by radioligand displacement assay. For orientation: Loss of bound radioactivity is the signal in a displacement assay; it reports binding, not function.

In test [2] the target is Histamine H1 receptor (Homo sapiens, UniProt P35367). Nature of the test: Displacement of [3H]-Pyrilamine from human histamine H1 receptor by liquid scintillation counter.
Sequence of Histamine H1 receptor (P35367 whole entry): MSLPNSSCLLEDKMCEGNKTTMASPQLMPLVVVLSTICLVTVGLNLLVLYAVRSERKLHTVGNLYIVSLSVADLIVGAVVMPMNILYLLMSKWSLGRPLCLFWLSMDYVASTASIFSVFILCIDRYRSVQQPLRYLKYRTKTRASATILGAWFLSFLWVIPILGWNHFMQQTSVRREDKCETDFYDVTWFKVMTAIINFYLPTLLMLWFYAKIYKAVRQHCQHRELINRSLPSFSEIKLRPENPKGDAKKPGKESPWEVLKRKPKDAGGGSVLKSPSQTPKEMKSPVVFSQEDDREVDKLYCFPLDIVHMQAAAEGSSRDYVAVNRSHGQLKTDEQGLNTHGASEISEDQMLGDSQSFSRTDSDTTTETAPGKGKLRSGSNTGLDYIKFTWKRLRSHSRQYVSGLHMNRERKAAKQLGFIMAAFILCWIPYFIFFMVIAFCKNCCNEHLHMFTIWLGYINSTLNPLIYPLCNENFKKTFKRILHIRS
The target in test [3] is 5-hydroxytryptamine receptor 2A (Homo sapiens, UniProt P28223). Nature of the test: Binding affinity at 5-HT2A receptor by radioligand displacement assay.
Sequence of 5-hydroxytryptamine receptor 2A (P28223 whole entry): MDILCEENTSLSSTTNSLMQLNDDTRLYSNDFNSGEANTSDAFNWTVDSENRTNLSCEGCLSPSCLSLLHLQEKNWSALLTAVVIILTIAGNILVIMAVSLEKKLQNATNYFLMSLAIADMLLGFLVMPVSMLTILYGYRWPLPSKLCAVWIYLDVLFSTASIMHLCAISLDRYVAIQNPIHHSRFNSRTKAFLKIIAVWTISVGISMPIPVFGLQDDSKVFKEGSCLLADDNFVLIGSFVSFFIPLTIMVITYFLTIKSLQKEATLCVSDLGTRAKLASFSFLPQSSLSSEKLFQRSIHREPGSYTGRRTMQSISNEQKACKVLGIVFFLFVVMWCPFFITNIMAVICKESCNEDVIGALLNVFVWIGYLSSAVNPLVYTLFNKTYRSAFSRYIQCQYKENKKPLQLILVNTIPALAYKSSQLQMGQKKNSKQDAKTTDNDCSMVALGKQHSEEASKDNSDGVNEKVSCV
The target in test [4] is D(3) dopamine receptor (Homo sapiens, UniProt P35462). Briefly: Displacement of [3H]-N-methylspiperone from dopamine D3 receptor expressed in […] MES-23.5.
Sequence of D(3) dopamine receptor (P35462 whole entry): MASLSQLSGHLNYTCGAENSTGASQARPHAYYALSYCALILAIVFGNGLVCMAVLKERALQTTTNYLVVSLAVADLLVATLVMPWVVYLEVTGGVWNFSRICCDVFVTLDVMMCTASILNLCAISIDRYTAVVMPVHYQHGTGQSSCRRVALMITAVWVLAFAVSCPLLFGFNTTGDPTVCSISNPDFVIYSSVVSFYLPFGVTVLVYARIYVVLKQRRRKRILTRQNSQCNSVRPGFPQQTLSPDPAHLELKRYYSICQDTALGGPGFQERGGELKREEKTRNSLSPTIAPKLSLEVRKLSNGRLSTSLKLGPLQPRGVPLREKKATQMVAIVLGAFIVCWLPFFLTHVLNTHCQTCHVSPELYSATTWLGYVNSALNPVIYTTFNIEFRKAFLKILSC
In test [5] the target is D(2) dopamine receptor (Homo sapiens, UniProt P14416). Briefly: Displacement of [3H]-N-methylspiperone from dopamine D2 receptor expressed in […] MES-23.5 cells. The format is cell-based.
Sequence of D(2) dopamine receptor (P14416 whole entry): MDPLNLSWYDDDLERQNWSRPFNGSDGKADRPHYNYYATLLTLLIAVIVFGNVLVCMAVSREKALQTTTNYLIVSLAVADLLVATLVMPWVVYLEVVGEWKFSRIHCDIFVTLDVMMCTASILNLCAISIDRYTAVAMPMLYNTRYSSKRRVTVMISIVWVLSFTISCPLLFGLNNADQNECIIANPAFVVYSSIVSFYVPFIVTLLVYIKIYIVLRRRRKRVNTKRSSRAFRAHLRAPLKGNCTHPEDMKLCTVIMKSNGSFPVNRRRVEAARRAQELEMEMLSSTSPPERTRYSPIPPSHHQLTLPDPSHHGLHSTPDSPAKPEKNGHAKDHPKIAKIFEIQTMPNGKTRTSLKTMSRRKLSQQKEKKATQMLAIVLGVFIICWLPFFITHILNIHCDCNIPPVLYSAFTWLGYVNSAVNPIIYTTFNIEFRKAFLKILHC
The target of test [6] is T2, D(4) dopamine receptor (Rattus norvegicus, UniProt P30729).
T2 sequence (P30729 whole entry): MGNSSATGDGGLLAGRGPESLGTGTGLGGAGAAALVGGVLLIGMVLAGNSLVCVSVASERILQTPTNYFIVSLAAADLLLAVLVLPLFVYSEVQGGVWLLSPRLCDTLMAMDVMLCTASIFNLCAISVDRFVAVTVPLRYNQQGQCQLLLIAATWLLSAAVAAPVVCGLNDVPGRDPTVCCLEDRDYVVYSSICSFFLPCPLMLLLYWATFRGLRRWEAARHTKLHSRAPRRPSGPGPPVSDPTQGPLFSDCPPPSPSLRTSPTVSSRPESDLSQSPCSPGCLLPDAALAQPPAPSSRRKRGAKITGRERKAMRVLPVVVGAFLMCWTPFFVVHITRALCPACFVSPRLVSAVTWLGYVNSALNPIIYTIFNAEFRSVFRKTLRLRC
Nature of the test: Displacement of [3H]-N-methylspiperone from rat dopamine D4 receptor.

Test [7] addresses T3, 5-hydroxytryptamine receptor 1A (Homo sapiens, UniProt P08908).
T3 sequence (P08908 whole entry): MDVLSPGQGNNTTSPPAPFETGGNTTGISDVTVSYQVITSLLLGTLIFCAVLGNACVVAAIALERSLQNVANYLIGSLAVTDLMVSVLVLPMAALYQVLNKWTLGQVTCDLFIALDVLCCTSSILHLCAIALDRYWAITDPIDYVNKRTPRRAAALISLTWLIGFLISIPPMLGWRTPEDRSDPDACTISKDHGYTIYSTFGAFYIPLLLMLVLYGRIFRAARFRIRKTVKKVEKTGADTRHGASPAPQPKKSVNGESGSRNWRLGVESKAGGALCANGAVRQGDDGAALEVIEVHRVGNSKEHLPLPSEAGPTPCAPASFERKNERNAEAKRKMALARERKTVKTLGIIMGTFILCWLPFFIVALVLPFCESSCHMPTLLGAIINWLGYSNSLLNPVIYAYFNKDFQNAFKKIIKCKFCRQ
Nature of the test: Displacement of [3H]8-OH-DPAT from 5-HT1A receptor expressed in CHO cells after 20 mins by liquid scintillation counting. Format: cell-based.

A value given as a limit tells only on which side of the number the result lay.

One may read the Ki as the dissociation constant of the complex between target and ligand, obtained from inhibition or displacement.

As to `OC1(c2ccc(Cl)cc2)C[C@H]2CC[C@@H](C1)N2CCCOc1ccc(F)cc1` (stereo partly specified), the Ki entry in test [1] is recorded as “Not Active”.

On to `Fc1ccc(SCCCN2CCCN(c3ccc(Cl)cc3)CC2)cc1`, for which the inhibition constant Ki in test [2] (read-out: Ki) amounted to 800 nM; in test [1] (read-out: Ki), 2530 nM; in test [3] (read-out: Ki) it was 163 nM.

Consider `Fc1ccc(OCCCN2CCCN(c3ccc(Cl)cc3)CC2)cc1`, for which the Ki in test [2] (read-out: Ki) was 509 nM; in test [1] (read-out: Ki), > 10000 nM; in test [3] (read-out: Ki) it was 567 nM.

For the compound `Fc1ccc(CCCCN2CCCN(c3ccc(Cl)cc3)CC2)cc1`, the Ki in test [4] is 3040 nM; in test [5] (read-out: Ki) it was 139 nM; in test [2] (read-out: Ki) it was 1250 nM; in test [6], 123 nM; in test [1] (read-out: Ki), 4100 nM; in test [3] (read-out: Ki), 510 nM.

Regarding `Clc1ccc(N2CCCN(CCCCc3nc4ccccc4s3)CC2)cc1`, the Ki in test [4] is 152 nM; in test [5] (read-out: Ki), 259 nM; in test [2] (read-out: Ki), 61 nM; in test [6], 28.6 nM; in test [1] (read-out: Ki), 1420 nM; in test [7] (read-out: Ki), 263 nM. Further, in test [3] (read-out: Ki), the Ki was determined as 159 nM.

With `Clc1ccc(N2CCCN(CCCc3nc4ccccc4s3)CC2)cc1`, the Ki was 863 nM in test [4]; “Not Active” in test [5]; 665 nM in test [2] (read-out: Ki); 431 nM in test [6]; 216 nM in test [7] (read-out: Ki); 696 nM in test [3] (read-out: Ki).

Regarding `Clc1ccc(N2CCCN(Cc3nc4ccccc4s3)CC2)cc1`, the Ki result in test [2], in test [1], in test [7] (cho) and in test [3] was “Not Active” in each case.

Regarding `O=C(CCCCN1CCCN(c2ccc(Cl)cc2)CC1)c1nc2ccccc2s1`, the Ki was 1050 nM in test [4]; 1980 nM in test [5] (read-out: Ki); 129 nM in test [2] (read-out: Ki); 1210 nM in test [6]; 5920 nM in test [1] (read-out: Ki); 495 nM in test [7] (read-out: Ki). Moreover, the Ki in test [3] (read-out: Ki) worked out at 1000 nM.

For `O=C(CCCN1CCCN(c2ccc(Cl)cc2)CC1)c1nc2ccccc2s1`, the Ki in test [4] is 777 nM; in test [5], “Not Active”; in test [6] it was 126 nM; in test [1], “Not Active”; in test [7] (cho), “Not Active”; in test [3] (read-out: Ki), 1040 nM.

Turning to `O=C(CCCCN1[C@@H]2CC[C@H]1CC(O)(c1ccc(Cl)cc1)C2)c1nc2ccccc2s1` (stereo partly specified), the Ki entry in test [1], in test [7] (cho) and in test [3] was “Not Active” throughout.

The record behind these values is ChEMBL document CHEMBL1944557 (Bioorg Med Chem, 2012).
